Read-outs that look alike come from different tables or passages of the source.
Key:
[1] = biological target: T1, wild type HCV NS3/4A 1b protease enzyme (Hepatitis C virus genotype 1b, UniProt P26663); assay: HCV Protease FRET Assay (IC50_APP), wild type; format: biochemical
T1 construct: 10× stocks of NS3/4A protease enzyme from Bioenza (Mountain View, Calif.); purchased Bioenza (Mountain View, Calif.)
Experimental: (§1) HCV Protease FRET Assay for WT and Mutated NS3/4A 1b Enzymes (IC50—APP).
(§2) The following protocol was used to generate “apparent” IC50 (IC50—APP) values as depicted in Table 6, below. […] 5 μL of each enzyme were added to Corning (#3575) 384-well, black, microtiter plates (Corning, N.Y.) after spotting a 0.5 μL volume of 50% DMSO and serially diluted compounds prepared in 50% DMSO. Protease reactions were immediately started after enzyme addition with the addition of 45 μL of the FRET substrate and monitored for 60-90 minutes at λex485/λem520 in a Synergy^4 plate reader from BioTek (Winooski, Vt.). At the conclusion of each assay, progress curves from each well were examined for linear reaction kinetics and fit statistics (R^2, 95% confidence intervals, absolute sum of squares).
(§3) The compound numbers correspond to the compound numbers in Table 3. […] ;

[2] = biological target: T2, D168A mutant of the HCV NS3/4A 1b protease enzyme (Hepatitis C virus genotype 1b, UniProt P26663, D1194A); assay: HCV Protease FRET Assay (IC50_APP), D168A mutant; format: biochemical; settings: apparent IC50, D168A mutant; read-out: IC50_APP, HCV D168A
T2 construct: 10× stocks of NS3/4A protease enzyme from Bioenza (Mountain View, Calif.); purchased Bioenza (Mountain View, Calif.)
Experimental: as §1, §2, §3

[3] = system: HCV RNA replicon in cell line ET (luc-ubi-neo/ET), human Huh7 hepatoma; assay: Luciferase Assay (Example 35), replicon-derived luciferase activity; format: cell-based; settings: Hepatitis C virus, Huh-7, assay described in Example 35
Experimental: The compounds were assayed to evaluate the antiviral activity and cytotoxicity of compounds using replicon-derived luciferase activity. This assay used the cell line ET (luc-ubi-neo/ET), which is a human Huh7 hepatoma cell line that contains an HCV RNA replicon with a stable luciferase (Luc) reporter and cell culture-adaptive mutations. The ET cell line was grown in a 5% CO2 incubator at 37° C. in Dulbecco's modified essential media (DMEM) supplemented with 2 mM L-glutamine, nonessential amino acids, 100 U of penicillin/ml, 100 μg of streptomycin/mL, and 10% fetal bovine serum. G418 (Geneticin; Invitrogen) was added at a final concentration of 400 ug//mL.
All cell culture reagents were obtained from Invitrogen (Carlsbad). Cells were trypsinized (1% trypsin:EDTA) and plated out at 5×10^3 cells/well in white 96-well assay plates (Costar) dedicated to cell number (cytotoxicity) or antiviral activity assessments. Test compounds were added at six 3-fold concentrations each and the assay was run in DMEM, 5% FBS, 1% pen-strep, 1% glutamine, 1% non essential amino acid. Human interferon alpha-2b (PBL Biolabs, New Brunswick, N.J.) was included in each run as a positive control compound. Cells were processed 72 hr post test compound addition when the cells were still subconfluent. Antiviral activity was measured by analyzing replicon-derived luciferase activity using the Steady-Glo Luciferase Assay System (Promega, Madison, Wis.) according to manufacturer's instruction. The number of cells in each well was determined by Cell Titer Blue Assay (Promega). Compound profile was derived by calculating applicable EC50 (effective concentration inhibiting virus replication by 50%), EC90 (effective concentration inhibiting virus replication by 90%), IC50 (concentration decreasing cell viability by 50%) and SI50 (selective index: […]) values.

[4] = biological target: T3, R155K mutant of the HCV NS3/4A 1b protease enzyme (Hepatitis C virus genotype 1b, UniProt P26663, R1181K); assay: HCV Protease FRET Assay (IC50_APP), R155K mutant; format: biochemical; settings: apparent IC50, R155K mutant; read-out: IC50_APP, HCV R155K
T3 construct: 10× stocks of NS3/4A protease enzyme from Bioenza (Mountain View, Calif.); purchased Bioenza (Mountain View, Calif.)
Experimental: as §1, §2, §3

[5] = system: HCV RNA replicon in cell line ET (luc-ubi-neo/ET), human Huh7 hepatoma; assay: Method A: HCV RNA replicon antiviral assay (luciferase, ET cell line); format: cell-based, Hepatitis C virus; settings: Hepatitis C virus, Huh-7, assay described in Example 22; for IC50: read-out: Replicon (IC50)
Experimental: The compounds were assayed to evaluate the antiviral activity and cytotoxicity of compounds in vitro using HCV RNA replicons. This assay used the cell line ET (luc-ubi-neo/ET), which is a human Huh7 hepatoma cell line that contains an HCV RNA replicon with a stable luciferase (Luc) reporter and three cell culture-adaptive mutations. […]
The ET cell line was grown in Dulbecco's modified essential media (DMEM), 10% fetal bovine serum (FBS), 1% penicillin-streptomycin (pen-strep), 1% glutamine, 250 μg/ml G418 in a 5% CO2 incubator at 37° C. All cell culture reagents were obtained from Mediatech (Manassas, Va.). Cells were trypsinized (1% trypsin:EDTA) and plated out at 5×10^3 cells/well in white 96-well assay plates (Costar) dedicated to cell number (cytotoxicity) or antiviral activity assessments. Drugs were added at six 3-fold concentrations each and the assay was run in DMEM, 5% FBS, 1% pen-strep, 1% glutamine. Human interferon alpha-2b (PBL Biolabs, New Brunswick, N.J.) was included in each run as a positive control compound. Cells were processed 72 hr post drug addition when the cells are still subconfluent. Antiviral activity was measured by analyzing replicon-derived luciferase activity using the Steady-Glo Luciferase Assay System (Promega, Madison, Wis.) according to manufacturer's instruction. The number of cells in each well was determined by CytoTox-1 reagent (Promega). Compound profile was derived by calculating applicable EC50 (effective concentration inhibiting virus replication by 50%), EC90 (effective concentration inhibiting virus replication by 90%), IC50 (concentration decreasing cell viability by 50%) and SI50 (selective index: […]) values.

[6] = biological target: T4, A156T mutant of the HCV NS3/4A 1b protease enzyme (Hepatitis C virus genotype 1b, UniProt P26663, A1182T); assay: HCV Protease FRET Assay (IC50_APP), A156T mutant; format: biochemical; settings: apparent IC50, A156T mutant; read-out: IC50_APP, HCV A156T
T4 construct: 10× stocks of NS3/4A protease enzyme from Bioenza (Mountain View, Calif.); purchased Bioenza (Mountain View, Calif.)
Experimental: as §1, §2, §3

[7] = read-out: IC50_APP, WT, apparent IC50, wild type NS3/4A 1b

Work on C=CC(=O)N[C@@H](C(=O)N1C[C@H](Oc2nccc3cc(OC)ccc23)C[C@H]1C(=O)N[C@]1(C(=O)NS(=O)(=O)C2CC2)C[C@H]1C=C)C(C)(C)O [Compound I-130] yielded an IC50 [1, 7] of 10 to 100 nM, an IC50 [2] of 100 to 1000 nM and an EC50 [3] of 100 to 1000 nM.
With C=C[C@@H]1C[C@]1(NC(=O)[C@@H]1C[C@@H](Oc2nccc3cc(OC)ccc23)CN1C(=O)[C@H](CCC(=O)/C=C\C(C)(C)C)NC(=O)OC(C)(C)C)C(=O)NS(=O)(=O)C1CC1 [Compound I-136] the IC50 [1, 7] was under 10 nM, the IC50 [2] was 100 to 1000 nM and the IC50 [4] was 100 to 1000 nM. The EC50 [3] was under 10 nM.
Molecule C=CC(=O)NC[C@H](NC(=O)OC1CCCC1)C(=O)N1C[C@H](Oc2nccc3ccc(-c4cccs4)cc23)C[C@H]1C(=O)N[C@]1(C(=O)NS(=O)(=O)C2CC2)C[C@H]1C=C [Compound I-88, Cyclopentyl-(S)-3-acrylamido-1-((2S,4R)-2-((1R,2S)-1-(cyclopropylsulfonylcarbamoyl)-2-vinylcyclopropylcarbamoyl)-4-(7-(thiophen-2-yl)isoquinolin-1-yloxy)pyrrolidin-1-yl)-1-oxopropan-2-ylcarbamate] has an IC90 [5] of 10 to 100 nM, an IC50 [5] of under 10 nM and an IC50 [1] of under 10 nM. For the same molecule, the IC50 [2] was 100 to 1000 nM and the IC50 [4] was 1000 to 10000 nM.
Molecule C=CCN(C[C@H](NC(=O)OC(C)(C)C)C(=O)N1C[C@H](Oc2nccc3cc(OC)ccc23)C[C@H]1C(=O)N[C@]1(C(=O)NS(=O)(=O)C2CC2)C[C@H]1C=C)C(=O)C=C [Compound I-99, {1-[(Acryloyl-allyl-amino)-methyl]-2-[2-(1-cyclopropanesulfonylaminocarbonyl-2-vinyl-cyclopropylcarbamoyl)-4-(6-methoxy-isoquinolin-1-yloxy)-pyrrolidin-1-yl]-2-oxo-ethyl}-carbamic acid tert-butyl ester] has an IC50 [1, 7] of under 10 nM, an IC50 [2] of 1000 to 10000 nM and an IC50 [4] of 100 to 1000 nM. For the same molecule, the EC50 [3] was 10 to 100 nM.
With C=C[C@@H]1C[C@]1(NC(=O)[C@@H]1C[C@@H](Oc2nccc3cc(OC)ccc23)CN1C(=O)[C@H](CCC(=O)/C(C)=C/C)NC(=O)OC(C)(C)C)C(=O)NS(=O)(=O)C1CC1 [Compound I-95, {1-[2-(1-Cyclopropanesulfonylaminocarbonyl-2-vinyl-cyclopropylcarbamoyl)-4-(6-methoxy-isoquinolin-1-yloxy)-pyrrolidine-1-carbonyl]-5-methyl-4-oxo-hept-5-enyl}-carbamic acid tert-butyl ester] the IC50 [1, 7] was under 10 nM, the IC50 [2] was 100 to 1000 nM and the IC50 [4] was 10 to 100 nM. For the same molecule, the EC90 ([3]; EC90) was 100 to 1000 nM and the EC50 [3] was 10 to 100 nM.
C=C[C@@H]1C[C@]1(NC(=O)[C@@H]1C[C@@H](Oc2nccc3cc(OC)ccc23)CN1C(=O)[C@@H](NC(=O)OC(C)(C)C)C(C)(C)C(=O)C=C(C)C)C(=O)NS(=O)(=O)C1CC1 [Compound I-134] gave an IC50 [1, 7] of under 10 nM, an IC50 [2] of 100 to 1000 nM and an IC50 [4] of 10 to 100 nM.
C=CC(=O)NC[C@H](NC(=O)CCCC(=O)NCCCOCCOCCOCCCNC(=O)CCCC[C@@H]1SC[C@@H]2NC(=O)N[C@@H]21)C(=O)N1C[C@H](Oc2nccc3cc(OC)ccc23)C[C@H]1C(=O)N[C@]1(C(=O)NS(=O)(=O)C2CC2)C[C@H]1C=C [Compound I-104] was tested, and the IC50 [1, 7] was under 10 nM, the IC50 [2] was 10 to 100 nM and the IC50 [4] was 10 to 100 nM.
C=C[C@@H]1C[C@]1(NC(=O)[C@@H]1C[C@@H](Oc2nccc3cc(OC)ccc23)CN1C(=O)[C@H](CCC(=O)/C=C/C(C)(C)C)NC(=O)OC(C)(C)C)C(=O)NS(=O)(=O)C1CC1 [Compound I-143] showed an IC50 [1, 7] of under 10 nM, an IC50 [2] of 1000 to 10000 nM and an IC50 [4] of 100 to 1000 nM.
C=CC(=O)NC[C@H](NC(=O)CCCC[C@H]1SC[C@H]2NC(=O)N[C@H]21)C(=O)N1C[C@H](Oc2nccc3cc(OC)ccc23)C[C@H]1C(=O)N[C@]1(C(=O)NS(=O)(=O)C2CC2)C[C@H]1C=C [Compound I-103, 1-{3-Acryloylamino-2-[5-(2-oxo-hexahydro-thieno[3,4-d]imidazol-6-yl)-pentanoylamino]-propionyl}-4-(6-methoxy-isoquinolin-1-yloxy)-pyrrolidine-2-carboxylic acid (1-cyclopropanesulfonylaminocarbonyl-2-vinyl-cyclopropyl)-amide] was tested, and the IC50 [1, 7] was 10 to 100 nM, the IC50 [2] was 10 to 100 nM and the IC50 [4] was 100 to 1000 nM.
[2H]C([2H])([2H])C(=CC(=O)CC[C@H](NC(=O)OC(C)(C)C)C(=O)N1C[C@H](Oc2nccc3cc(OC)ccc23)C[C@H]1C(=O)N[C@]1(C(=O)NS(=O)(=O)C2CC2)C[C@H]1C=C)C([2H])([2H])[2H] [Compound I-142] gave an IC50 [1, 7] of under 10 nM, an IC50 [2] of 100 to 1000 nM and an IC50 [4] of 10 to 100 nM.
In the case of C=C[C@@H]1C[C@]1(NC(=O)[C@@H]1C[C@@H](Oc2nccc3cc(OC)ccc23)CN1C(=O)[C@H](CC(=O)/C(C)=C/C)NC(=O)OC(C)(C)C)C(=O)NS(=O)(=O)C1CC1 [Compound I-133], the IC50 [1, 7] is reported as under 10 nM, the IC50 [2] is reported as 100 to 1000 nM and the IC50 [4] is reported as 10 to 100 nM.
C=CC(=O)N(C)C[C@@H]1NC(=O)OCCC/C=C/c2ccc3ccnc(c3c2)O[C@@H]2C[C@@H](C(=O)N[C@]3(C(=O)NS(=O)(=O)C4CC4)C[C@H]3C=C)N(C2)C1=O [Compound I-83] gave an IC50 [1] of 10 to 100 nM, an IC50 [2] of 1000 to 10000 nM and an IC50 [4] of 1000 to 10000 nM.
Molecule CC[C@@H]1C[C@]1(NC(=O)[C@@H]1C[C@@H](Oc2nccc3cc(OC)ccc23)CN1C(=O)[C@H](CCC(=O)C=C(C)C)NC(=O)OC(C)(C)C)C(=O)NS(=O)(=O)C1CC1 [Compound I-114] has an IC50 [1, 7] of under 10 nM, an IC50 [4] of 100 to 1000 nM and an EC50 [3] of 10 to 100 nM.
With C=C[C@@H]1C[C@]1(NC(=O)[C@@H]1C[C@@H](Oc2nccc3cc(OC)ccc23)CN1C(=O)[C@H](CCC(=O)/C=C/c1ccccc1)NC(=O)OC(C)(C)C)C(=O)NS(=O)(=O)C1CC1 [Compound I-137] the IC50 [1, 7] was 10 to 100 nM, the IC50 [2] was 1000 to 10000 nM and the IC50 [4] was 1000 to 10000 nM.
For C=CC(=O)NC[C@@H]1NC(=O)OCCC/C=C/c2ccc3ccnc(c3c2)O[C@@H]2C[C@@H](C(=O)N[C@]3(C(=O)NS(=O)(=O)C4CC4)C[C@H]3C=C)N(C2)C1=O [Compound I-77, (1R,2S)-N-1-cyclopropylsulfonylcarboxamido-2-vinylcyclopropyl (2R,4S,7S,14E)-7-acrylamidomethyl-2H-16,18-etheno-2,5-methano-11H-pyrido[2,3-k][1,10,3,6]dioxadiazacyclononadecine-4-ylcarboxamide], the IC90 [5] was 10 to 100 nM, the IC50 [5] was under 10 nM and the IC50 [1] was under 10 nM. It also gave an IC50 [6] of 100 to 1000 nM, an IC50 [2] of 100 to 1000 nM and an IC50 [4] of 10 to 100 nM.

Reference: patent publication US8309685B2 (Celgene Avilomics Research, Inc., priority 2007, dated 2012)
